According to PubChem BioAssay (NCI):
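These data come from cells grown in 96-well plates and exposed to compound for 48 hours at five concentrations. Here, GI50 denotes the concentration required for 50% inhibition of growth. TGI is the concentration that stops growth completely.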

Tests used:
Experiment in all cases: inhibition of tumour cell growth, NCI panel, 48 h
COLO 205 colon = test system: COLO 205 colon
HT29 colon = test system: HT29 colon
KM12 colon = test system: KM12 colon
MALME-3M melanoma = test system: MALME-3M melanoma
MOLT-4 leukemia = test system: MOLT-4 leukemia
NCI-H226 lung = test system: NCI-H226 lung
NCI-H460 lung = test system: NCI-H460 lung
PC-3 prostate = test system: PC-3 prostate
SF-268 CNS = test system: SF-268 CNS
SK-MEL-28 melanoma = test system: SK-MEL-28 melanoma

| Compound | GI50 (COLO 205 colon) [µM] | TGI (COLO 205 colon) [µM] | GI50 (HT29 colon) [µM] | TGI (HT29 colon) [µM] | GI50 (KM12 colon) [µM] | TGI (KM12 colon) [µM] | GI50 (MALME-3M melanoma) [µM] | TGI (MALME-3M melanoma) [µM] | GI50 (MOLT-4 leukemia) [µM] | TGI (MOLT-4 leukemia) [µM] | GI50 (NCI-H226 lung) [µM] | TGI (NCI-H226 lung) [µM] | GI50 (NCI-H460 lung) [µM] | TGI (NCI-H460 lung) [µM] | GI50 (PC-3 prostate) [µM] | TGI (PC-3 prostate) [µM] | GI50 (SF-268 CNS) [µM] | TGI (SF-268 CNS) [µM] | GI50 (SK-MEL-28 melanoma) [µM] | TGI (SK-MEL-28 melanoma) [µM] |
| --- | --- | --- | --- | --- | --- | --- | --- | --- | --- | --- | --- | --- | --- | --- | --- | --- | --- | --- | --- | --- |
| C[C@@H](Oc1cc(-c2cnn(C3CCNCC3)c2)cnc1N)c1c(Cl)cc(F)cc1Cl | 0.857 | 2.45 | 1.11 | 3.56 | 0.0496 | 2.93 | 1.27 | 2.94 | 0.866 | 7.71 | 2.25 | 9.87 | 0.902 | 5.4 | 1.99 | 14.7 | 3.05 | 12.1 | 1.56 | 3.17 |
| COc1ccc(-c2nnc(Nc3nc(O)c(C4=c5cc(Br)ccc5=NC4=O)s3)o2)cc1 | 32 | > 100 | 35.4 | > 100 | 3.54 | 23.5 | – | 3.53 | 3.51 | 27.6 | 1.02 | 8.35 | 22.6 | > 100 | 18.1 | > 76.7 | 47.5 | > 100 | 29 | > 100 |
| c1ccc2c(c1)[nH]c1c3ccccc3sc21 | – | > 100 | – | > 100 | – | > 100 | – | > 100 | – | > 100 | – | > 100 | – | > 100 | – | > 100 | – | > 100 | – | > 100 |
| c1ccc(/C(=N\Nc2nc3ccccc3s2)c2ccccn2)cc1 | – | 16.9 | – | 47.1 | – | > 100 | – | 34.4 | – | 4.17 | – | 29.7 | – | 12.8 | – | > 53.2 | – | > 50.4 | – | > 100 |
| C=C1C(=O)O[C@H]2[C@H]1CC/C(COC(=O)/C=C\C(=O)NCc1ccc(Cn3c(=O)sn(-c4ccc(Cl)cc4)c3=O)cc1)=C\CC[C@@]1(C)O[C@@H]21 | 0.564 | 1.59 | 0.369 | 1.52 | 0.891 | 1.82 | 0.852 | 1.63 | 0.499 | 3.27 | 1.24 | 4.28 | 0.811 | 1.74 | 0.599 | 1.39 | 0.71 | 1.43 | 0.816 | 1.55 |
| C=C1C(=O)O[C@H]2[C@H]1CC/C(COC(=O)N[C@H](Cc1c[nH]c3ccccc13)C(=O)OC)=C\CC[C@@]1(C)O[C@@H]21 | 1.81 | 3.76 | 2.46 | 7.92 | 11.8 | 28.6 | 1.95 | 4.24 | 2.5 | 7.54 | 2.2 | 5.73 | 5.79 | 21.2 | 6.49 | 20.5 | 5.17 | 19.8 | 1.96 | 4.48 |
| Cc1nn(-c2ccccc2)c2nc(C)n(-c3ccc(Br)cc3)c(=O)c12 | 0.549 | 18.4 | 0.355 | > 31.6 | 0.521 | > 100 | 12.1 | 76.9 | 0.53 | > 100 | 1.01 | > 100 | 0.451 | > 39.1 | 0.475 | > 100 | 2.33 | > 100 | 3.46 | > 100 |
| C=CCN1C(=O)[C@]2(SC1=S)[C@H](c1cccc(Cl)c1)CN(C)[C@]21C(=O)NC2C=CC(Cl)=C[C@H]21 (stereo partly drawn) | 1.78 | 4.35 | 1.67 | 3.85 | 1.99 | 6.35 | 2.88 | 12.7 | 2.07 | 6.82 | 1.59 | 3.98 | 3.62 | 13.6 | 2.19 | 13 | 6.77 | 24.6 | 10.9 | 27.8 |
| NS(=O)(=O)c1cc(C(=O)O)c(Cl)c([N+](=O)[O-])c1Cl | – | > 100 | – | > 100 | – | > 100 | – | > 100 | – | > 100 | – | > 100 | – | > 100 | – | > 100 | – | > 100 | – | > 100 |
| Nc1ncnc2c1ncn2CCCCC(=O)O | – | > 100 | – | > 100 | – | > 100 | – | > 100 | – | > 100 | – | > 100 | – | > 100 | – | > 100 | – | > 100 | – | > 100 |
| CCC(C(=O)[C@@H](C)[C@@H](O)[C@H](C)[C@@H]1O[C@@H]([C@@H](CC)C(=O)ONC(=O)c2ccccc2)CC[C@@H]1C)[C@H]1O[C@]2(C=CC(=O)[C@]3(CC[C@@](C)([C@H]4CC[C@](O)(CC)[C@H](C)O4)O3)O2)[C@H](C)C[C@@H]1C (stereo partly drawn) | 0.122 | 1.78 | 0.387 | 2.1 | 0.592 | 2.94 | 0.168 | 1.06 | 0.729 | 3.32 | 0.749 | 3.56 | 0.331 | 2.09 | 0.0775 | 1.99 | 0.977 | 3.11 | 1.6 | 8.57 |
| C/C=C(\C)C(=O)O[C@@H]1C=CC(=O)O[C@H]1CNC(=O)[C@H](C)O | 8.96 | 27.2 | 17.7 | 40.6 | 17.3 | 36.3 | 15 | 32.8 | – | 5.35 | 28.9 | > 81.4 | 22.2 | 67.9 | 27.3 | > 92.2 | 17 | 51.3 | 16.1 | 35.8 |
| C1=C\CCCCN2CC[C@H]3[C@H](CCCC/C=C\CCCN4C[C@@H](CCCCC/1)C[C@@H]3C4)C2 | 2.25 | 5.75 | 3.28 | 12.9 | 9.05 | 21.5 | 2.13 | 5.43 | 3.67 | 17.4 | 13.5 | 27.7 | 5.58 | 18.1 | 14 | 36.6 | 13.6 | 26.8 | 1.82 | 3.35 |
